The structures appear in SMILES notation. Active and inactive are the calls of the source.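 The calls were made as follows: active = mean IC50 below 10 µM; inactive = the rest.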

The target of this assay is Apelin receptor (Homo sapiens) (UniProt P35414). Put plainly: APJ antagonists, beta-arrestin recruitment, SAR follow-up, cell-based, luminescence, set 2 (AID 488803). The note with it: CHO-K1 APJ PathHunter beta-arrestin, antagonist.
Apelin receptor (Homo sapiens), sequence (P35414 whole entry, looked up): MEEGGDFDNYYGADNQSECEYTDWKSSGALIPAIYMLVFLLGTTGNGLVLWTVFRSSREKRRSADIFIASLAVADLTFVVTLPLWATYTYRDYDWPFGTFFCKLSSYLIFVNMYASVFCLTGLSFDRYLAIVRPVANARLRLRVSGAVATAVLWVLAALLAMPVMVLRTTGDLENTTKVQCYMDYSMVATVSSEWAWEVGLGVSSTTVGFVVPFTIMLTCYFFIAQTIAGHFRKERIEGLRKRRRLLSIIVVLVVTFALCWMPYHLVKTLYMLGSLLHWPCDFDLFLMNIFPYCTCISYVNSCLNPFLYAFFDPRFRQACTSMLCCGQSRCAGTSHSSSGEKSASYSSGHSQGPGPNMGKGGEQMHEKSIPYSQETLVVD
As to `Cc1ccnc(SCc2cc(=O)c(OC(=O)c3cc(Cl)ccc3[N+](=O)[O-])co2)n1`, the IC50 (as a rule, the concentration at which inhibition is half-maximal) was “inactive”.

With `CC1(C)CC2(CC(c3ccccc3Cl)c3ccc(O)cc3O2)NC(=O)N1` (stereo unspecified), the IC50 is > 79 µM (inactive).

Turning to `COc1cc(CSc2nc(C)cc(C)n2)ccc1O`, the IC50 was > 79 µM (inactive).

`O=C(Oc1coc(CSc2ncccn2)cc1=O)c1ccc(F)cc1`: the IC50 was > 79 µM (inactive).

As to `COc1ccccc1NC(=O)CN1C(=O)C(=O)c2ccccc21`, the IC50 entry is “inactive”.

On to `Cc1ccnc(SCc2cc(=O)c(OC(=O)c3ccc([N+](=O)[O-])cc3)co2)n1`, for which the half-maximal inhibitory concentration (IC50) is 4.32 µM.

`O=C(Oc1coc(CSc2ncccn2)cc1=O)c1ccc(S(=O)(=O)N2CCCC2)cc1`: the IC50 was > 79 µM (inactive).

As for `CC1(C)CC2(CC(c3ccccc3Cl)c3ccc(O)cc3O2)NC(=S)N1` (stereo unspecified), the IC50 was 6.88 µM.

In the case of `Cc1cccc(C2CC3(CC(C)(C)NC(=S)N3)Oc3cc(O)c(Cl)cc32)c1` (stereo unspecified), the IC50 result was “inactive”.

`COc1ccccc1NCC(=O)c1ccc(Cl)cc1`: the IC50 is 1.7 µM.

Regarding `CSc1cccc(N=C2C(=O)Nc3ccccc32)c1`, the 50% inhibitory concentration (IC50) was 9.84 µM.

Regarding `Cc1ccc(N=C2C(=O)Nc3ccccc32)cc1`, the IC50 result was “inactive”.

In the case of `O=c1cc(CCl)occ1O`, the IC50 is > 79 µM (inactive).

In the case of `Cc1cc(C)nc(SCc2cc(=O)c(OC(=O)c3cccc([N+](=O)[O-])c3C)co2)n1`, the IC50 is > 79 µM (inactive).

As for `O=C(Oc1coc(CSc2ncccn2)cc1=O)c1ccc(-c2ccccc2)cc1`, the IC50 is > 79 µM (inactive).

Turning to `Cc1ccnc(SCc2cc(=O)c(OC(=O)c3ccc(Cl)cc3)co2)n1`, the IC50 was > 79 µM (inactive).

As for `Cc1c(O)ccc2c1OC1(CC2c2ccccc2Cl)CC(C)(C)NC(=O)N1` (stereo unspecified), the IC50 is > 79 µM (inactive).

As for `Cc1ccnc(SCc2cc(=O)c(OC(=O)c3ccc(OC(F)(F)F)cc3)co2)n1`, the IC50 was > 79 µM (inactive).

Consider `Cc1ccnc(SCc2cc(=O)c(OC(=O)c3ccccc3Cl)co2)n1`, for which the IC50 entry was “inactive”.

Regarding `O=C(Oc1coc(CSc2ccccc2)cc1=O)c1ccc(Cl)c([N+](=O)[O-])c1`, the IC50 was 9.61 µM.

In the case of `O=C(Oc1coc(CSc2ncccn2)cc1=O)c1cc(Cl)ccc1[N+](=O)[O-]`, the IC50 was > 79 µM (inactive).

For `C=CCOc1cccc(CSc2nc(C)cc(C)n2)c1`, the IC50 is > 79 µM (inactive).

For the molecule `Cc1ccnc(SCc2cc(=O)c(OC(=O)c3ccco3)co2)n1`, the IC50 was > 79 µM (inactive).

Take `Cc1cc(C)nc(SCc2cc(=O)c(OC(=O)c3cc([N+](=O)[O-])ccc3Cl)co2)n1`: the IC50 result is “inactive”.

Take `Cc1cccc(C2CC3(CC(C)(C)NC(=S)N3)Oc3cc(O)cc(C)c32)c1` (stereo unspecified): the IC50 result is “inactive”.

In the case of `O=C(Oc1coc(CSc2ncccn2)cc1=O)c1ccc(C(F)(F)F)cc1`, the IC50 entry was “inactive”.

For `Cc1cc(C)nc(SCc2cc(=O)c(OC(=O)c3cc(Cl)ccc3[N+](=O)[O-])co2)n1`, the IC50 was > 79 µM (inactive).

In the case of `COc1ccc(C(=O)Oc2coc(CSc3ncccn3)cc2=O)cc1`, the IC50 was > 79 µM (inactive).

`O=C(Oc1coc(CSc2ncccn2)cc1=O)c1ccc(Cl)cc1`: the IC50 result was “inactive”.

With `Cc1cc(C)nc(SCc2cc(=O)c(OC(=O)c3ccc(Cl)c([N+](=O)[O-])c3)co2)n1`, the IC50 is 5.45 µM.

Turning to `Cc1ccnc(SCc2cc(=O)c(OC(=O)c3cc([N+](=O)[O-])ccc3Cl)co2)n1`, the IC50 entry is “inactive”.

Consider `C=CCOc1cccc(CSc2nccc(C)n2)c1`, for which the IC50 was > 79 µM (inactive).

Consider `C=CCOc1cccc(CSc2ncccn2)c1`, for which the IC50 is > 79 µM (inactive).

On to `COc1ccc(C(=O)Oc2coc(CSc3nccc(C)n3)cc2=O)cc1`, for which the IC50 is > 79 µM (inactive).

Regarding `COc1ccc(NC2C(=O)Nc3ccccc32)cc1` (stereo unspecified), the IC50 is > 79 µM (inactive).

Consider `CCCCOc1ccc(C(=O)Oc2coc(CSc3ncccn3)cc2=O)cc1`, for which the IC50 is > 79 µM (inactive).

Regarding `Cc1ccnc(SCc2cc(=O)c(OC(=O)c3ccc(C)c([N+](=O)[O-])c3)co2)n1`, the IC50 is 4.7 µM.

Regarding `CCOc1ccc(C(=O)Oc2coc(CSc3ncccn3)cc2=O)cc1`, the IC50 is > 79 µM (inactive).

On to `CN(C)S(=O)(=O)c1ccc(C(=O)Oc2coc(CSc3ncccn3)cc2=O)cc1`, for which the IC50 was > 79 µM (inactive).

For `Cc1ccc(C(=O)Oc2coc(CSc3ncccn3)cc2=O)cc1`, the IC50 was > 79 µM (inactive).

As for `COc1ccc(C2CC3(CC(C)(C)NC(=S)N3)Oc3cc(O)cc(C)c32)cc1` (stereo unspecified), the IC50 entry is “inactive”.

As for `O=C(Oc1coc(CSc2ncccn2)cc1=O)c1ccc(Br)cc1`, the IC50 result was “inactive”.

`Cc1ccnc(SCc2cc(=O)c(OC(=O)c3ccccc3C)co2)n1`: the IC50 is > 79 µM (inactive).

For the molecule `C=CCSC1=NC2(CC(c3ccccc3)c3c(C)cc(O)cc3O2)CC(C)(C)N1` (stereo unspecified), the IC50 was > 79 µM (inactive).

For `O=C(Oc1coc(CSc2ncccn2)cc1=O)c1ccc(Cl)c([N+](=O)[O-])c1`, the IC50 was 6.2 µM.

Turning to `O=C(Oc1coc(CSc2ncccn2)cc1=O)c1ccccc1`, the IC50 was > 79 µM (inactive).

Take `COc1cccc(C(=O)Oc2coc(CSc3nccc(C)n3)cc2=O)c1`: the IC50 was > 79 µM (inactive).

For `CC1(C)CC2(CC(c3ccc(Cl)cc3)c3ccc(O)cc3O2)NC(=S)N1` (stereo unspecified), the IC50 result was “inactive”.

As to `Cc1cc(C)nc(SCc2cccc(O)c2)n1`, the IC50 was > 79 µM (inactive).

In the case of `C=CCOc1ccc(COc2ccccc2)cc1`, the IC50 is > 79 µM (inactive).

As for `CC1(C)CC2(CC(c3ccc(F)cc3)c3ccc(O)cc3O2)NC(=S)N1` (stereo unspecified), the IC50 is > 79 µM (inactive).

Consider `Cc1cc(C)nc(SCc2cc(=O)c(OC(=O)c3ccc(S(=O)(=O)N(C)C)cc3)co2)n1`, for which the IC50 was > 79 µM (inactive).

Take `Cc1ccnc(S(=O)(=O)Cc2cc(=O)c(OC(=O)c3ccc(Cl)c([N+](=O)[O-])c3)co2)n1`: the IC50 was 3.21 µM.

With `C=CCOc1ccc(CSc2nc(C)cc(C)n2)cc1OC`, the IC50 was > 79 µM (inactive).

As for `C=CCOc1ccc(CSc2nccc(C)n2)cc1`, the IC50 is > 79 µM (inactive).

Consider `Cc1ccc(C)c(NCC(O)c2ccc(Cl)cc2)c1` (stereo unspecified), for which the IC50 was > 79 µM (inactive).

With `Cc1cc(C)nc(SCc2ccc(OC(=O)c3ccccc3)c(Cl)c2)n1`, the IC50 was > 79 µM (inactive).

As for `O=c1cc(CSc2ccccc2)occ1O`, the IC50 was > 79 µM (inactive).

On to `Cc1ccc(C(=O)Oc2coc(CSc3nccc(C)n3)cc2=O)cc1`, for which the IC50 was > 79 µM (inactive).

As for `Cc1ccc(NCC(O)c2ccccc2)cc1` (stereo unspecified), the IC50 was > 79 µM (inactive).

For the molecule `Cc1ccc(C(=O)Oc2coc(CSc3ncccn3)cc2=O)cc1C`, the IC50 was > 79 µM (inactive).

Turning to `COc1cc(C(=O)Oc2coc(CSc3ncccn3)cc2=O)c([N+](=O)[O-])cc1OC`, the IC50 was > 79 µM (inactive).

In the case of `O=C(Oc1coc(CSc2ncccn2)cc1=O)c1cc([N+](=O)[O-])ccc1Cl`, the IC50 entry is “inactive”.

Regarding `Cc1cc(C)nc(SCc2ccc(O)c(Cl)c2)n1`, the IC50 is > 79 µM (inactive).

For the molecule `O=C(O)CN1C(=O)C(=O)c2ccccc21`, the IC50 was > 79 µM (inactive).

With `CC(C)(C)c1ccc(C(=O)Oc2coc(CSc3ncccn3)cc2=O)cc1`, the IC50 is > 79 µM (inactive).

Turning to `CC(C)Oc1ccc(C(=O)Oc2coc(CSc3ncccn3)cc2=O)cc1`, the IC50 was > 79 µM (inactive).

As to `Cc1ccnc(SCc2cc(=O)c(OC(=O)c3ccc(C#N)cc3)co2)n1`, the IC50 was 8.51 µM.

Turning to `CSC1=NC2(CC(c3ccccc3)c3cc(Cl)c(O)cc3O2)CC(C)(C)N1` (stereo unspecified), the IC50 is > 79 µM (inactive).

Regarding `Cc1ccccc1C1CC2(CC(C)(C)NC(=S)N2)Oc2cc(O)c(Cl)cc21` (stereo unspecified), the IC50 result was “inactive”.

As to `Cc1ccnc(SCc2cc(=O)c(OCc3ccccc3)co2)n1`, the IC50 is > 79 µM (inactive).

Regarding `Cc1ccnc(SCc2cc(=O)c(OC(=O)c3cccs3)co2)n1`, the IC50 is > 79 µM (inactive).

In the case of `Cc1ccc(C(=O)Oc2coc(CSc3ncccn3)cc2=O)cc1[N+](=O)[O-]`, the IC50 is 7.25 µM.

With `Cc1cc(C)nc(SCc2cc(=O)c(O)co2)n1`, the IC50 was > 79 µM (inactive).

Turning to `CC1(C)CC2(CC(c3ccccc3Cl)c3ccc(OC(=O)c4ccccc4)cc3O2)NC(=S)N1` (stereo unspecified), the IC50 result was “inactive”.

Turning to `Oc1cccc(CSc2ncccn2)c1`, the IC50 was > 79 µM (inactive).

For `Cc1ccccc1NCC(O)c1ccc(Cl)cc1` (stereo unspecified), the IC50 is > 79 µM (inactive).

In the case of `Cc1ccnc(SCc2cc(=O)c(OC(=O)c3cccc([N+](=O)[O-])c3)co2)n1`, the IC50 result was “inactive”.

For `COc1ccccc1NCC(O)c1ccc(Cl)cc1` (stereo unspecified), the IC50 was > 79 µM (inactive).

Turning to `Cc1ccnc(SCc2cc(=O)c(OC(=O)c3ccc(F)cc3)co2)n1`, the IC50 is > 79 µM (inactive).

As for `N#Cc1ccc(C(=O)Oc2coc(CSc3ncccn3)cc2=O)cc1`, the IC50 is 6.59 µM.

For `CC(C)OC(=O)CN1C(=O)C(=O)c2ccccc21`, the IC50 was > 79 µM (inactive).

As to `Cc1cc(C)nc(SCc2cc(=O)c(OC(=O)c3ccc(C)c([N+](=O)[O-])c3)co2)n1`, the IC50 result was “inactive”.

With `C=CCOc1ccc(CSc2nc(C)cc(C)n2)cc1Cl`, the IC50 is > 79 µM (inactive).

`Cc1ccccc1NCC(=O)c1ccc(Cl)cc1`: the IC50 was 1.42 µM.

As to `Cc1c(C(=O)Oc2coc(CSc3ncccn3)cc2=O)cccc1[N+](=O)[O-]`, the IC50 result is “inactive”.

Regarding `Cc1ccnc(SCc2cccc(O)c2)n1`, the IC50 is > 79 µM (inactive).

In the case of `O=c1cc(CSc2ncccn2)occ1O`, the IC50 was > 79 µM (inactive).

For `O=C(Oc1coc(CSc2ncccn2)cc1=O)c1cccc([N+](=O)[O-])c1`, the IC50 entry is “inactive”.

Take `Cc1ccnc(SCc2cc(=O)c(OC(=O)c3ccc(S(=O)(=O)N4CCCC4)cc3)co2)n1`: the IC50 is > 79 µM (inactive).

Turning to `Cc1ccc(NCC(=O)c2ccccc2)cc1`, the 50% inhibitory concentration (IC50) is 2.53 µM.

Values taken from PubChem BioAssay AID488803 (Sanford-Burnham Center for Chemical Genomics, 2010).
